Changes are numbered by the printed parent chain. Where no end group is shown, it is not given here.
What was measured:
Experiment in all cases: Homologous whole cell competition binding
Conditions in all cases: homologous competition of 125I-sCT(8-32), whole cells, mean ± S.E.M., SEM
[1] = biological target: T1, hCTR W361A (Homo sapiens, UniProt P30988, W361A)
T1 construct: expressed in transfected cells
T1 sequence (P30988 25-474 W361A): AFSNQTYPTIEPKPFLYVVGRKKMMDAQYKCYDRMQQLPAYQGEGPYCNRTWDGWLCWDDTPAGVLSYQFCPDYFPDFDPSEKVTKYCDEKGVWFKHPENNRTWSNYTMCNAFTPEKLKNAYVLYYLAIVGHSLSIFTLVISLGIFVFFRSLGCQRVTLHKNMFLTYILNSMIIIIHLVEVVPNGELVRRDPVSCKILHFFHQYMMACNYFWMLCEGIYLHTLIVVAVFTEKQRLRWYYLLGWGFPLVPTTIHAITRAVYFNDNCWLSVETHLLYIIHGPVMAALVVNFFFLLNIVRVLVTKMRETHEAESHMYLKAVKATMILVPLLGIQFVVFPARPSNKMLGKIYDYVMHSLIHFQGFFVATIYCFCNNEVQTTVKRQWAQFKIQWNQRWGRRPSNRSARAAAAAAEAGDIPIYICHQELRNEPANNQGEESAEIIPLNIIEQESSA
Protocol: (§1) Homologous radioligand competition was performed on 2.5 × 10^4 cells/well seeded into 96-well trays and cultured overnight. Cells were incubated overnight at 4 °C with two concentrations of ^125I-sCT(8-32) (between 25 and 100 pM; specific activity, 2000 Ci/mmol^9) and serial dilutions of non-iodinated sCT(8-32). Non-bound ligand was removed and bound ligand activity was measured using a γ counter (Wallac Wizard 1470 Gamma Counter, Perkin Elmer, 80% counter efficiency). Values were normalized against non-specific binding (0%) defined by the presence of 1 μM of unlabelled sCT(8-32), and total ligand bound in absence of competing sCT(8-32) (100%).
(§2) IC50 and Bmax values were estimated from competitive inhibition of ^125I-sCT(8-32) binding using a 3-parameter logistic equation (log(inhibitor versus response)) in Prism (v7; Graphpad). Data were corrected for radioligand occupancy using the Cheng-Prusoff equation in Prism; as such data are reported as pKi. Emax and EC50 were estimated from concentration-response curves using with a 3-parameter logistic equation in Prism (v7). These values are a composite of functional affinity, efficacy and stimulus response coupling. The Black and Leff operational model of agonism was applied to separate effects on pathway-specific efficacy (τ) from those that modify ligand functional affinity (pKA). Derived τ values were normalized to experimentally determined levels of cell surface expression to provide a measure of efficacy (τc) that is independent of affinity and altered cell surface receptor expression. pKi, pKA and log τc values for mutant receptors were statistically compared to those of the WT receptor using a one-way analysis of variance (ANOVA) and Dunnett’s post-test. Significance was accepted at P < 0.05.

[2] = biological target: T2, hCTR Y374A (Homo sapiens, UniProt P30988, Y374A)
T2 construct: c-Myc (N); expressed in transfected cells
T2 sequence (P30988 25-474 Y374A): T1 sequence (P30988 25-474 W361A) with A337W, Y350A
Protocol: as §1, §2

[3] = biological target: T3, hCTR V357A (Homo sapiens, UniProt P30988, V357A)
T3 construct: c-Myc (N); expressed in transfected cells
T3 sequence (P30988 25-474 V357A): T1 sequence (P30988 25-474 W361A) with V333A, A337W
Protocol: as §1, §2

[4] = biological target: T4, hCTR H296A (Homo sapiens, UniProt P30988, H296A)
T4 construct: c-Myc (N); expressed in transfected cells
T4 sequence (P30988 25-474 H296A): T1 sequence (P30988 25-474 W361A) with H272A, A337W
Protocol: as §1, §2

VLGKLSQELHKLQTYPRTNTGSGTP-NH2 [sCT(8-32)]
Ki [1]: 0.282 nM
Ki [2]: 0.148 nM
Ki [3]: 0.209 nM
Ki [4]: 0.269 nM

— article PMC5908784, “Extracellular loops 2 and 3 of the calcitonin receptor selectively modify agonist binding and efficacy” (Biochemical Pharmacology, 2018)
